Two molecules from ChEMBL document CHEMBL1140379, “Extraction and visualization of potential pharmacophore points using support vector machines: application to ligand-based virtual screening for COX-2 inhibitors” (J Med Chem, 2005) can be followed below.

This assay addresses T1, Prostaglandin G/H synthase 2 (Homo sapiens, UniProt P35354).
T1 sequence (P35354 whole entry): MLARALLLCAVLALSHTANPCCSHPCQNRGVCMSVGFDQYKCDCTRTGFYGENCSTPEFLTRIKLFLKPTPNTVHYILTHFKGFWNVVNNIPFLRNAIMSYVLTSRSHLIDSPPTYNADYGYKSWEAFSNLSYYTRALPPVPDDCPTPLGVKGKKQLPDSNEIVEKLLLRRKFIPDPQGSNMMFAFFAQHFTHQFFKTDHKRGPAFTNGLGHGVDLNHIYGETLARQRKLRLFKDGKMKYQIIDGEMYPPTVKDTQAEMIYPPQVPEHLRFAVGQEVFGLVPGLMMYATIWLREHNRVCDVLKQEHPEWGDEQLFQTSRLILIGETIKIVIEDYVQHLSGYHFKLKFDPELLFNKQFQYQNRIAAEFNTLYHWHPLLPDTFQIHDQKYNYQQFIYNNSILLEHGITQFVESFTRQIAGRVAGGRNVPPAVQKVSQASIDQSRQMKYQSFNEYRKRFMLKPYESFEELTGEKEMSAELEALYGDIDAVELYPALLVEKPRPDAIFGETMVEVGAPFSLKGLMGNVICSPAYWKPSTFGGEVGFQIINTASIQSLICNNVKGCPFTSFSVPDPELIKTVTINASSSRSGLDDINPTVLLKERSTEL
Put plainly: Inhibitory concentration against COX-2 upon incubation for 15 minutes at 37 degree C.

Structures are written as SMILES.

Regarding `COc1ccccc1-n1c(-c2ccc(S(N)(=O)=O)cc2)nc2ccccc21`, the 50% inhibitory concentration (IC50) (in general, the concentration at which inhibition is half-maximal) stood at 8 µM.

In the case of `NS(=O)(=O)c1ccc(-c2nc3ccccc3n2-c2ccc(Cl)cc2)cc1`, the half-maximal inhibitory concentration (IC50) stood at 0.2 µM.
